Tested on: weeds
Assay: greenhouse tests after either or both pre- and post-emergence application
Type: in vivo
Conditions: application rate corresponding to 0.25 kg/ha
Protocol: In pre-emergence testing, small plastic greenhouse pots filled with dry soil are seeded with the various weed seeds. Twenty-four hours or less after the seeding, the pots are sprayed with water until the soil is wet and the test compounds formulated as aqueous emulsions of acetone solutions containing emulsifiers are sprayed at the indicated concentrations emulsifiers are sprayed on the surface of the soil. After spraying, the soil containers are placed in the greenhouse and provided with supplementary heat as required and daily or more frequent watering. The plants are maintained under these conditions for a period of from 14 to 21 days, at which time the conditions of the plants and the degree of injury to the plants is rated.
After spraying, the plants are placed in a greenhouse and watered daily or more frequently. Water is not applied to the foliage of the treated plants. The severity of the injury is determined 21 days after treatment and is rated.

Q: `COC(=O)CON(C(C)=O)C(=O)c1c(Cl)ccc(Cl)c1OC` [Compound 1.12, Methyl N-acetyl-N-(3,6-dichloro-2methoxy)benzoylaminooxyacetate] was tested. Which control of weeds did it give?
A: substantial control of weeds

Source: EP0381913A1, “Benzohydroxamic-acid derivatives” (SANDOZ AG, priority 1988, dated 1990)
